Experimental data published in the supplement of paper PMC13207355.
Counter-ions that a name gives are not always drawn.

What was measured:
Settings in all cases: exposure time: 72 h
E34 [1] = patient-derived glioblastoma stem cells of proneural subtype; test: surviving fraction (nuclei count normalised to DMSO); higher = more cells surviving (less toxic)
E13 [2] = patient-derived glioblastoma stem cells of classical subtype; test: as above
E28 [3] = patient-derived glioblastoma stem cells of classical subtype; test: as above
E21 [4] = patient-derived glioblastoma stem cells of mesenchymal subtype; test: as above
E31 [5] = patient-derived glioblastoma stem cells of proneural subtype; test: as above
FT3469 [6] = normal neural stem cell line; test: as above
E57 [7] = patient-derived glioblastoma stem cells of mesenchymal subtype; test: as above
E34 [8] = test: phenotypic distance (Euclidean, principal components) from DMSO controls (arbitrary units); higher = stronger morphological change
E13 [9] = test: as above
E28 [10] = test: as above
E21 [11] = test: as above
E31 [12] = test: as above
FT3469 [13] = test: as above
E57 [14] = test: as above
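Throughout, for phenotypic distance (Euclidean, principal components) from DMSO controls: cell Painting imaging in 384-well plates, CellProfiler features reduced to at least 20 principal components, Euclidean distance versus same-plate DMSO vehicle wells (0.1% v/v), median over six images per well.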
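Throughout, for surviving fraction (nuclei count normalised to DMSO): nuclei counted by high-content imaging of Hoechst-stained cells in laminin-coated 384-well plates, relative to 0.1% DMSO vehicle wells, with staurosporine as cell-death control.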

Cc1cccn2c(=O)c(-c3nnn[nH]3)cnc12 [Pemirolast potassium]
Settings	phenotypic distance	surviving fraction
E13 [2], 4.1 nM	–	0.925
E13 [2], 12.3 nM	–	0.971
E13 [2], 37 nM	–	1
E13 [2], 111.1 nM	–	1.04
E13 [2], 333.3 nM	–	0.947
E13 [2], 1000 nM	–	0.974
E13 [2], 3000 nM	–	1.18
E13 [9], 4.1 nM	0.849	–
E13 [9], 12.3 nM	0.649	–
E13 [9], 37 nM	2.3	–
E13 [9], 111.1 nM	0.669	–
E13 [9], 333.3 nM	3.24	–
E13 [9], 1000 nM	0.451	–
E13 [9], 3000 nM	0.784	–
E21 [4], 4.1 nM	–	0.923
E21 [4], 12.3 nM	–	0.982
E21 [4], 37 nM	–	0.908
E21 [4], 111.1 nM	–	0.88
E21 [4], 333.3 nM	–	0.953
E21 [4], 1000 nM	–	1.01
E21 [4], 3000 nM	–	1.1
E21 [11], 4.1 nM	0.761	–
E21 [11], 12.3 nM	0.597	–
E21 [11], 37 nM	3.74	–
E21 [11], 111.1 nM	0.731	–
E21 [11], 333.3 nM	0.31	–
E21 [11], 1000 nM	0.294	–
E21 [11], 3000 nM	0.896	–
E28 [3], 4.1 nM	–	1.07
E28 [3], 12.3 nM	–	1.11
E28 [3], 37 nM	–	1.06
E28 [3], 111.1 nM	–	0.959
E28 [3], 333.3 nM	–	1.14
E28 [3], 1000 nM	–	1.05
E28 [3], 3000 nM	–	1.22
E28 [10], 4.1 nM	0.658	–
E28 [10], 12.3 nM	0.636	–
E28 [10], 37 nM	0.677	–
E28 [10], 111.1 nM	0.665	–
E28 [10], 333.3 nM	0.613	–
E28 [10], 1000 nM	0.514	–
E28 [10], 3000 nM	0.875	–
E31 [5], 4.1 nM	–	0.909
E31 [5], 12.3 nM	–	0.917
E31 [5], 37 nM	–	0.897
E31 [5], 111.1 nM	–	0.921
E31 [5], 333.3 nM	–	1.21
E31 [5], 1000 nM	–	0.987
E31 [5], 3000 nM	–	1.12
E31 [12], 4.1 nM	1.22	–
E31 [12], 12.3 nM	0.493	–
E31 [12], 37 nM	0.804	–
E31 [12], 111.1 nM	0.401	–
E31 [12], 333.3 nM	0.814	–
E31 [12], 1000 nM	0.403	–
E31 [12], 3000 nM	0.73	–
E34 [1], 4.1 nM	–	1.09
E34 [1], 12.3 nM	–	0.99
E34 [1], 37 nM	–	1.04
E34 [1], 111.1 nM	–	0.927
E34 [1], 333.3 nM	–	1.15
E34 [1], 1000 nM	–	1.03
E34 [1], 3000 nM	–	1.11
E34 [8], 4.1 nM	1.15	–
E34 [8], 12.3 nM	0.672	–
E34 [8], 37 nM	0.605	–
E34 [8], 111.1 nM	0.603	–
E34 [8], 333.3 nM	0.641	–
E34 [8], 1000 nM	0.674	–
E34 [8], 3000 nM	0.547	–
E57 [7], 4.1 nM	–	0.965
E57 [7], 12.3 nM	–	0.992
E57 [7], 37 nM	–	0.959
E57 [7], 111.1 nM	–	1.09
E57 [7], 333.3 nM	–	0.986
E57 [7], 1000 nM	–	1.01
E57 [7], 3000 nM	–	1.01
E57 [14], 4.1 nM	0.873	–
E57 [14], 12.3 nM	0.412	–
E57 [14], 37 nM	0.46	–
E57 [14], 111.1 nM	0.618	–
E57 [14], 333.3 nM	0.603	–
E57 [14], 1000 nM	0.198	–
E57 [14], 3000 nM	0.693	–
FT3469 [6], 4.1 nM	–	1.01
FT3469 [6], 12.3 nM	–	0.959
FT3469 [6], 37 nM	–	1.08
FT3469 [6], 111.1 nM	–	1.07
FT3469 [6], 333.3 nM	–	1.19
FT3469 [6], 1000 nM	–	1.09
FT3469 [6], 3000 nM	–	1.23
FT3469 [13], 4.1 nM	1.49	–
FT3469 [13], 12.3 nM	0.577	–
FT3469 [13], 37 nM	0.829	–
FT3469 [13], 111.1 nM	0.485	–
FT3469 [13], 333.3 nM	0.522	–
FT3469 [13], 1000 nM	0.561	–
FT3469 [13], 3000 nM	1.16	–

CN1[C@@H]2CC[C@H]1CC(OC(=O)c1c[nH]c3ccccc13)C2 (stereo partly specified) [3-Tropanyl-indole-3-carboxylate hydrochloride]
Settings	phenotypic distance	surviving fraction
E13 [2], 4.1 nM	–	1.02
E13 [2], 12.3 nM	–	0.939
E13 [2], 37 nM	–	0.913
E13 [2], 111.1 nM	–	0.975
E13 [2], 333.3 nM	–	0.828
E13 [2], 1000 nM	–	0.931
E13 [2], 3000 nM	–	0.699
E13 [9], 4.1 nM	0.681	–
E13 [9], 12.3 nM	1.03	–
E13 [9], 37 nM	0.87	–
E13 [9], 111.1 nM	0.726	–
E13 [9], 333.3 nM	0.624	–
E13 [9], 1000 nM	1.01	–
E13 [9], 3000 nM	1.66	–
E21 [4], 4.1 nM	–	0.945
E21 [4], 12.3 nM	–	0.965
E21 [4], 37 nM	–	0.912
E21 [4], 111.1 nM	–	1
E21 [4], 333.3 nM	–	0.935
E21 [4], 1000 nM	–	0.929
E21 [4], 3000 nM	–	0.821
E21 [11], 4.1 nM	0.866	–
E21 [11], 12.3 nM	0.871	–
E21 [11], 37 nM	0.74	–
E21 [11], 111.1 nM	0.815	–
E21 [11], 333.3 nM	0.781	–
E21 [11], 1000 nM	0.853	–
E21 [11], 3000 nM	1.33	–
E28 [3], 4.1 nM	–	1.25
E28 [3], 12.3 nM	–	0.858
E28 [3], 37 nM	–	1.06
E28 [3], 111.1 nM	–	0.728
E28 [3], 333.3 nM	–	0.943
E28 [3], 1000 nM	–	0.894
E28 [3], 3000 nM	–	0.734
E28 [10], 4.1 nM	1.03	–
E28 [10], 12.3 nM	0.793	–
E28 [10], 37 nM	0.737	–
E28 [10], 111.1 nM	0.922	–
E28 [10], 333.3 nM	0.691	–
E28 [10], 1000 nM	0.845	–
E28 [10], 3000 nM	1.24	–
E31 [5], 4.1 nM	–	0.893
E31 [5], 12.3 nM	–	0.975
E31 [5], 37 nM	–	0.905
E31 [5], 111.1 nM	–	0.978
E31 [5], 333.3 nM	–	1.17
E31 [5], 1000 nM	–	0.945
E31 [5], 3000 nM	–	0.906
E31 [12], 4.1 nM	0.406	–
E31 [12], 12.3 nM	0.329	–
E31 [12], 37 nM	0.778	–
E31 [12], 111.1 nM	0.924	–
E31 [12], 333.3 nM	1.07	–
E31 [12], 1000 nM	0.762	–
E31 [12], 3000 nM	0.758	–
E34 [1], 4.1 nM	–	0.923
E34 [1], 12.3 nM	–	0.963
E34 [1], 37 nM	–	1.2
E34 [1], 111.1 nM	–	0.942
E34 [1], 333.3 nM	–	0.904
E34 [1], 1000 nM	–	0.885
E34 [1], 3000 nM	–	0.9
E34 [8], 4.1 nM	1.09	–
E34 [8], 12.3 nM	0.577	–
E34 [8], 37 nM	0.765	–
E34 [8], 111.1 nM	1.86	–
E34 [8], 333.3 nM	0.741	–
E34 [8], 1000 nM	1.59	–
E34 [8], 3000 nM	1.13	–
E57 [7], 4.1 nM	–	0.904
E57 [7], 12.3 nM	–	0.959
E57 [7], 37 nM	–	1.02
E57 [7], 111.1 nM	–	1.02
E57 [7], 333.3 nM	–	1.02
E57 [7], 1000 nM	–	1.04
E57 [7], 3000 nM	–	0.94
E57 [14], 4.1 nM	0.753	–
E57 [14], 12.3 nM	0.699	–
E57 [14], 37 nM	0.615	–
E57 [14], 111.1 nM	0.914	–
E57 [14], 333.3 nM	0.614	–
E57 [14], 1000 nM	1.06	–
E57 [14], 3000 nM	1.1	–
FT3469 [6], 4.1 nM	–	1.11
FT3469 [6], 12.3 nM	–	0.924
FT3469 [6], 37 nM	–	1.07
FT3469 [6], 111.1 nM	–	1.06
FT3469 [6], 333.3 nM	–	0.843
FT3469 [6], 1000 nM	–	0.927
FT3469 [6], 3000 nM	–	0.855
FT3469 [13], 4.1 nM	0.942	–
FT3469 [13], 12.3 nM	0.464	–
FT3469 [13], 37 nM	2.87	–
FT3469 [13], 111.1 nM	0.576	–
FT3469 [13], 333.3 nM	0.57	–
FT3469 [13], 1000 nM	0.775	–
FT3469 [13], 3000 nM	0.616	–
